Experimental findings from PubChem BioAssay (NCI) are described below.

Common to all, as to assay: NCI tumour cell line growth inhibition, 48 h
The subject of assay [1] is NCI-H23 lung.
Assay [2] relates to M14 melanoma.
The test system of assay [3] is KM12 colon.
The test system of assay [4] is NCI-H226 lung.
Assay [5] has as its system SF-295 CNS.
Assay [6] relates to SNB-75 CNS.
In assay [7] the test system is MALME-3M melanoma.
The subject of assay [8] is IGROV1 ovarian.
For assay [9], the system named is SNB-19 CNS.
Assay [10] has as its system HS 578T breast.

“And” between values parts separate entries of the source, which are not always exact repeats. Equal values may be shown once.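 Growth conditions: 96-well plates. Treatment: test compound, 48 hours, 5 concentrations. Analysis: linear interpolation between bracketing concentrations; unreached endpoints set to highest concentration. GI50: concentration for 50% inhibition of growth. TGI marks complete inhibition of growth.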

In the case of `O=C(O)CCCl`, the TGI in [1], in [2], in [3], in assay [4], in assay [5] and in assay [6] was over 5000 µM each time. Further, the TGI was 4970 µM in assay [7] and over 5000 µM in assay [8].
As for `C=C1C(=O)OC2/C=C(\C)C(OC(C)=O)C3OC3C(C)(O)CC(OC(=O)/C(C)=C/C)C12` (stereo unspecified), the TGI amounted to 34.4 µM in [1]; 16 µM in assay [2]; 33.7 µM in [9]; 28.7 µM in assay [3]; 23.4 µM in assay [4]; 42.4 µM in assay [5]. Besides, the values for the TGI in assay [6], in assay [7] and in [8] were 97.4 µM, 21 µM and 35.7 µM, respectively.
For the molecule `O=C(CSc1nnc(-c2ccc(N=Cc3ccc(Cl)cc3)cc2)o1)Nc1ccccc1Cl`, the TGI in assay [1], in [2], in assay [9], in assay [3], in assay [4] and in assay [5] was over 100 µM each time. Besides, the TGI in assay [6] and in [7] was over 100 µM throughout.
For `CC1=NN(c2nc(N)nc(-c3ccccc3S(N)(=O)=O)n2)C(C)(C)C1`, the TGI in [1] was over 100 µM; in assay [2], 87.2 µM; in assay [3], over 100 µM; in assay [4] it was over 100 µM; in [5], over 100 µM; in assay [8], over 100 µM. This molecule showed a TGI in assay [10] of over 100 µM.
As to `COc1cccc2c1OC1c3ccccc3OCC1C2` (stereo unspecified), the TGI in assay [1] is over 100 µM; in assay [2] it was over 100 µM; in assay [3] it was over 100 µM; in assay [4], over 100 µM; in assay [5] it was over 100 µM; in [6], 20.6 µM. Also, the TGI in assay [7] and in assay [8] was over 100 µM throughout.
Turning to `O=C(COc1ccc(OCC(=O)N2C(=O)CC(=O)N(c3ccccc3)C2=S)cc1)N1C(=O)CC(=O)N(c2ccccc2)C1=S`, the TGI in assay [1], in [2], in assay [9], in assay [3], in [4] and in [5] was over 100 µM each time. The TGI in assay [6], in [7] and in assay [8] was over 100 µM each time.
Turning to `Cc1[nH]c2ncn(/N=C/c3ccccc3O)c(=N)c2c1Cc1ccccc1`, the TGI in assay [1], in assay [2], in [9], in [3], in assay [4] and in [5] was over 100 µM throughout. The TGI in assay [6], in assay [8] and in assay [10] was over 100 µM throughout.
On to `O=C1N[C@H]2c3c(Cl)sc(Cl)c3/C(=N/O)[C@H]2O1`, for which the TGI in assay [2], in assay [9], in [3], in assay [6], in assay [7] and in [8] was over 100 µM in each case.
For `S=c1sc2c(Cl)ncnc2n1-c1ccccc1`, the TGI was found to be 31.7 µM in assay [1]; 26.3 µM in assay [2]; 32.9 µM in [9]; 31 µM in assay [3]; 26.4 µM in assay [4]; 25.5 µM in [5]. Moreover, the results for the TGI in assay [6], in assay [7] and in assay [8] were 27.4 µM, 23.9 µM and 28.2 µM, respectively.
On to `CC1=NN(C(=O)CSc2nnc(SCC(=O)N3N=C(C)CC3(O)c3ccccc3)s2)C(O)(c2ccccc2)C1` (stereo unspecified), for which the TGI in assay [1] was over 100 µM; in assay [2], 36.1 µM; in [9] it was over 100 µM; in assay [3], 93.2 µM; in assay [5] it was over 100 µM; in [7], over 100 µM. For the same molecule, the TGI in [8] is over 100 µM; in assay [10], 70.2 µM.
`CCOC(=O)c1ccc(N=NN(C)C(=O)C(C)N)cc1` (stereo unspecified): the TGI in assay [1], in assay [2], in assay [9], in [3], in assay [4] and in assay [5] was over 100 µM each time. The TGI in assay [6], in [7] and in assay [8] was over 100 µM in each case.
Consider `Cc1c2cc[nH]c(C(F)(F)F)c2cc2c1nc1ccccc12`, for which the TGI is over 125 µM in assay [1]; over 125 µM in [9]; over 125 µM in [3]; over 125 µM in assay [4]; over 125 µM in assay [5]; 108 µM in [6]. In addition, the TGI in assay [7] and in assay [8] was over 125 µM each time.
In the case of `CCC1(O)CC(OC2CC(N(C)C)C(OC3CC4OC5CC(=O)C(C)OC5OC4C(C)O3)C(C)O2)c2c(cc3c(c2O)C(=O)c2c(O)ccc(O)c2C3=O)C1C(=O)OC` (stereo unspecified), the GI50 in assay [2] is 0.0245 µM. Moreover, in assay [9], the TGI is 0.117 µM and 0.245 µM and 1.17 µM.
Turning to `CCN(CC)CCNC(=O)c1ccccc1NC(=O)C(=O)Nc1ccccc1C(=O)NCCN(CC)CC`, the TGI in [1] is over 100 µM; in assay [2] it was 33.9 µM; in [9], over 100 µM; in assay [3], over 100 µM; in assay [4], over 100 µM; in [5], over 100 µM. The TGI in assay [6] is over 100 µM; in assay [7] it was 37.7 µM; in [8], over 100 µM.
Regarding `Clc1ccc2c(SCC3CO3)c3ccccc3nc2c1` (stereo unspecified), the TGI was over 100 µM in assay [1]; 3.34 µM in assay [2]; 15.3 µM in [9]; over 100 µM in assay [4]; 42.1 µM in assay [5]; 60.5 µM in [6]. Also, the TGI in assay [7] amounted to 6.39 µM; in assay [8] it was 2.9 µM.
For `Nc1nc2c(=O)c3ccccc3sc2s1`, the TGI in [1] is over 100 µM; in assay [2], over 100 µM; in assay [9], over 100 µM; in assay [3], over 100 µM; in assay [4], 79.1 µM; in assay [5], over 100 µM. The TGI in assay [6], in assay [8] and in assay [10] was over 100 µM each time.
